Blank lines part the entries; values can stand above or below the compound they belong to.
Legend:
[1] = test system: HDAC2; assay: Western blot of HDAC2 expression in HepG2 cells; format: cell-based, human; conditions: versus hepatoma cell group, p < 0.05
Description: The total protein was extracted from the logarithmic growth phase of hepatoma HepG2 cell line, and the expression of HDAC2 was detected by Western blot method with urushiol derivative compound 1(see Figure 3). […] The mechanism was probably related to the inhibition of HDAC2 expression.
(§1) Detection of cell proliferation by MTT
(§2) MTT assay was used to determine the inhibitory effect of the sample on the proliferation of HepG2 cells. The tumor cells of logarithmic growth stage were inoculated with 3.5 * 103 / well in 96 well culture plate. 0.2 ml/pore system was cultured for 72 h with different concentrations of samples. Then 20μL(final concentration 0.5 mg / mL) of MTT were added to each pore for 4 h. The supernatant was carefully adsorbed, DMSO 0.15 mL was added to each pore, and oscillatory mixing was carried out. The absorbance (A) value at 490 nm wavelength was measured by enzyme labeling instrument. The inhibition rate of cell proliferation was calculated as follows: [(A value of negative control group-A value of blank group)-(A value of experimental group A value of blank group)] / (negative pair group A-A value of blank group) × 100.Statistical method. The statistical analysis was carried out by SPSS 17.0 statistical software. The measured data were described by x ±s, and the mean of the two samples was compared with t test (P < 0. 05).
(§3) Materials and methods: Main reagents and instruments […]

[2] = test system: HepG2 cells; assay: Annexin-V FITC/PI double staining for apoptosis (flow cytometry); format: cell-based, human; conditions: 72 h
Experimental: After treating HepG2 cells with three concentrations of compound 1 for 72 h, flow cytometry was used to detect the apoptosis rate changes. […]
(§4) Detection of apoptosis by Annexin-V FITC/PI double staining
(1) inoculate the logarithmic growth cells into the six-hole plate. The next day, after the cells are adhered to the wall, according to the group . […]
(§5) (2) after 72 hours of treatment, the cells were digested with 0.25% trypsin (excluding […]
(§6) (3) 5 × 10 ~ 5 cells were collected by PBS washing cells twice (centrifugation 2000rpm for 5 […]
(4) adding 500 μ L Binding Buffer suspension cells;
(5) After adding 5 μ L Annexin V-FITC, adding 5 μ L Pi, mixing;
(6) at room temperature, no light, the reaction time was 5 ~ 15 min, and the apoptosis was detected by flow cytometry. […]

[3] = test system: HepG2 cells; assay: Morphological observation of HepG2 cells; format: cell-based, human; conditions: 6.25, 25 and 50 μM
Experimental: The mortality rate of HepG2 cells was increasing faster on higher concentration of compound 1. The inhibition of cell proliferation strengthened over time. […] The cells became round, the volume became smaller and the refraction decreased. When the cells were treated with high concentration of compound 1, the cells were suspended and shed. The cells no longer adhered to the wall. They gradually became round, and the membrane ruptured, shrank and finally lost vitality.

[4] = test system: HepG2 cells; assay: MTT assay, inhibition of proliferation of HepG2 cells; format: cell-based, human; conditions: for IC50: in vitro, 72 h
Experimental: (§7) As shown in Figure 1 and Table 1, compounds 1–16 were evaluated for their inhibitory effects on the proliferation of HepG2 and LO2 cells by MTT assay. […] It provided the experimental basis for the subsequent synthesis of attenuating and improving urushiol derivatives.
as §1, §2, §3
(§8) Full-range rainbow […]
(§9) The HepG2 cells were cultured in a saturated humidity incubator with 90% […]
(§10) Jiangsu Kaiji Biotechnology Co., Ltd. Main reagents and consumables Cell culture bottle […]
(§11) Cell proliferation measured by MTT
(§12) 1) the cells were digested and counted, the cell suspension was prepared by 3 x 10^4 /ml, and 100 micron L cell suspension was added to each hole in the 96 hole cell culture plate.
(§13) 2) 96 hole cell culture plate was placed in 37, 5%, CO2 culture box for 24 hours.
(§14) 3) use the medium to dilute the drug to the desired working fluid concentration, add 100 micron l per hole to the corresponding drug medium, and establish a negative control group and a positive control group (paclitaxel, 20ug/ml).
(§15) 4) 96 hole cell culture plate was placed at 37 ℃ and 5% CO2 incubator for 72 hours.
(§16) 5) 96 hole board for MTT staining, lambda =490nm, OD value determination; a. 20 μL MTT (5mg/ml) per hole was added to the culture box for 4 hours. b. discarding the supernatant, adding 150 μL DMSO for each hole, and gently mixing the […]
(§17) c. lambda =490nm, ELISA od readout per hole, the inhibition rate was calculated.
(§18) 6) calculate the inhibition rate of each group.The inhibition rate (%) = (negative control group OD value of experimental group / OD) negative control group OD x 100% […]
(§19) 7 check the machine and record the red fluorescence at the excitation wavelength of 488nm.
as §4
(§20) (1) inoculate the logarithmic growth cells into the six-hole plate. The next day, after the cells are adhered to the wall, according to the group . The culture medium containing medicine was added and the negative control group was set up at the same time
as §5
(§21) (3) 5 × 10 ~ 5 cells were collected by PBS washing cells twice (centrifugation 2000rpm for 5

[5] = test system: HepG2 cells; assay: Calcium content detection (Fluo-3 probe, flow cytometry); format: cell-based, human; conditions: for Mean (calcium, Fluo-3 fluorescence): 72 h
Experimental: Calcium content detection
(1) inoculate the logarithmic growth cells into the six-hole plate. The next day, after the cells are adhered to the wall, according to the group . The culture medium containing medicine was added and the negative control group was set up at the same time.
as §5, §6
(4) adding 5 μ M Fluo-3 probe and mixing it to 37 degrees to avoid light for 30 min;

[6] = test system: HepG2 cells; assay: JC-1 staining assay of mitochondrial membrane potential; format: cell-based, human
Experimental: Detection of mitochondrial membrane potential by JC-1 staining
1inoculate the logarithmic growth cell digestion into the six-hole plate, the next day, after the cells adhered to the wall, according to the group set up to add the corresponding drug medium, and set up a negative control group at the same time;
(2) the cell concentration was collected and adjusted to 1 × 10^6 / ml by PBS washing (centrifugation 2000rpm for 5 min);
(3) 100 μ L 10 × Incubation Buffer and 900 μ L sterilized deionized water were diluted to 1 × Incubation buffer, and then preheated to 37 ℃;
(4) 500 μ L 1 × Incubation buffer was absorbed and 1 μ L JC-1 was added to prepare JC-1 […]
(5) the cells were incubated in a incubator containing CO 2 at 37 ℃ for 15 ~ 20 min with […]
(6) the cells were collected by centrifugation at room temperature for 5 min and washed twice with 1 × Incubation Buffer.
(7) resuspension cells of 500 μ L 1 × Incubation Buffer;
(8) on the computer test. […]

[7] = test system: HepG2 cells; assay: PI single staining assay for cell cycle (flow cytometry); format: cell-based, human; conditions: for G1 (%) / G2 (%) / S (%): 72 h
Experimental: After the cells were tested with three different doses of Compound 1 (1, 3, and 12 μM), they were collected and detected by flow cytometry. […] Compared with the blank control group, the proportion of cells in G0/G1 phase of each dose of compound 1 increased gradually, but both the percentage of S stage cells and the proportion of cells in G2/M stage decreased to some extent. […]
Detection of cell cycle by PI single staining
1, the logarithmic growth phase were digested and inoculated into six well plates, the next day, after the cells adhered, according to the group set to join the corresponding drug containing medium, and the establishment of the negative control group; 2, after the action of 72h, the cells were digested with 0.25% pancreatin (not containing […]
3, 5 x 10^5 cells were collected by PBS scrubbing cells (centrifuge 2000rpm, 5min).
4, the single cell suspension prepared was fixed for 2 hours (or overnight) with a volume fraction of 70% ethanol, and stored at 4 ℃. Before washing, PBS was used to remove the fixative solution (if needed, cell suspension was filtered through 200 mesh mesh).
5 plus 100 mu L RNase A 37 ℃ water bath 30min;
6, adding 400 L PI dyeing and avoiding light 30min at 4 ℃.
7 check the machine and record the red fluorescence at the excitation wavelength of 488nm. […]

[8] = test system: LO2 cells; assay: MTT assay, toxic effect on normal liver cells LO2; format: cell-based; conditions: in vitro
Experimental: as §7, §1, §2, §3, §8, §9, §10, §11, §12, §13, §14, §15, §16, §17, §18, §19, §4, §20, §5, §21

Structure (SMILES): C/C=C\C=C\C/C=C\CCCCCCCc1cccc(O)c1O[Si](CCCS)(OC)OC [Compound 1]
expression of HDAC2 protein (in words) [1]: significantly lower
Apoptosis (%) ([2]; HepG2, 1 μm): 15.73%
LL (%) ([2]; HepG2, 1 μm): 82.71%
LR (%) ([2]; HepG2, 1 μm): 9.38%
UL (%) ([2]; HepG2, 1 μm): 1.56%
UR (%) ([2]; HepG2, 1 μm): 6.35%
Apoptosis (%) ([2]; HepG2, 3 μm): 32.60%
LL (%) ([2]; HepG2, 3 μm): 67.33%
LR (%) ([2]; HepG2, 3 μm): 16.42%
UL (%) ([2]; HepG2, 3 μm): 0.07%
UR (%) ([2]; HepG2, 3 μm): 16.18%
Apoptosis (%) ([2]; HepG2, 12 μm): 47.87%
LL (%) ([2]; HepG2, 12 μm): 48.91%
LR (%) ([2]; HepG2, 12 μm): 37.68%
UL (%) ([2]; HepG2, 12 μm): 3.24%
UR (%) ([2]; HepG2, 12 μm): 10.19%
proliferation of HepG2 cells by morphological observation (in words) [3]: gradually inhibited
inhibitory activity on HepG2 cells proliferation (in words) [4]: strong
IC50 ([4]; Homo sapiens, HepG2, 72 h): 7.89 µM
IC50 [4]: 7.88 µM
Mean (calcium, Fluo-3 fluorescence) ([5]; HepG2, 1 μm): 65.01
Mean (calcium, Fluo-3 fluorescence) ([5]; HepG2, 3 μm): 94.39
Mean (calcium, Fluo-3 fluorescence) ([5]; HepG2, 12 μm): 136.80
intracellular calcium concentration (in words) ([5]; HepG2, compared with blank control group): increased
UR % Gated ([6]; HepG2, JC-1, 12 μM): 46.18%
Green Fluorescence (%) (LR % gated) ([6]; HepG2, JC-1, 1 μm): 16.72%
Green Fluorescence (%) (LR % gated) ([6]; HepG2, JC-1, 3 μm): 28.14%
Green Fluorescence (%) (LR % gated) ([6]; HepG2, JC-1, 12 μm): 53.82%
G1 (%) ([7]; HepG2, 1 μM): 54.48%
G2 (%) ([7]; HepG2, 1 μM): 15.79%
S (%) ([7]; HepG2, 1 μM): 29.72%
G1 (%) ([7]; HepG2, 3 μM): 60.17%
G2 (%) ([7]; HepG2, 3 μM): 13.64%
S (%) ([7]; HepG2, 3 μM): 26.19%
G1 (%) ([7]; HepG2, 12 μM): 65.80%
G2 (%) ([7]; HepG2, 12 μM): 13.79%
S (%) ([7]; HepG2, 12 μM): 20.40%
effect on cell cycle (in words) ([7]; HepG2, 1, 3 and 12 μM): block cells in G0/G1 phase
IC50 ([8]; Homo sapiens, L02, 72 h): 150 µM
IC50 ([8]; 72 h): 151 µM

Structure (SMILES): C/C=C\C=C\C/C=C\CCCCCCCc1cccc2c1OB(C(=O)C(F)(F)C(F)(F)F)O2 [Compound 2]
IC50 ([4]; Homo sapiens, HepG2, 72 h): 198 µM
IC50 ([8]; Homo sapiens, L02, 72 h): > 200 µM

Structure (SMILES): C/C=C\C=C\C/C=C\CCCCCCCc1cccc2c1OB(c1ccccc1)O2 [Compound 4]
inhibitory activity on HepG2 cells proliferation (in words) [4]: strong
IC50 [4]: 15.3 µM
IC50 ([8]; Homo sapiens, L02, 72 h): 181 µM

Structure (SMILES): C/C=C\C=C\C/C=C\CCCCCCCc1cccc2c1OB(c1ccncc1)O2 [Compound 5]
IC50 ([4]; Homo sapiens, HepG2, 72 h): 180 µM
IC50 ([8]; Homo sapiens, L02, 72 h): > 200 µM

Structure (SMILES): C/C=C\C=C\C/C=C\CCCCCCCc1cccc2c1OB(c1ccnc(F)c1)O2 [Compound 6]
IC50 ([4]; Homo sapiens, HepG2, 72 h): > 200 µM
IC50 ([8]; Homo sapiens, L02, 72 h): > 200 µM

Structure (SMILES): C/C=C\C=C\C/C=C\CCCCCCCc1ccc2c(C)cc(=O)oc2c1O [Compound 10, 8-hydroxy-4-methyl-7-((8Z,11E,13Z)-pentadeca-8,11,13-trien-1-yl)-2H-chro men-2-one]
IC50 ([4]; Homo sapiens, HepG2, 72 h): ~28 µM
IC50 [4]: 28.8 µM
IC50 ([8]; Homo sapiens, L02, 72 h): 180 µM
IC50 ([8]; 72 h): 198 µM

Structure (SMILES): C/C=C\C=C\C/C=C\CCCCCCCc1ccc2c(C)cc(=O)oc2c1OB(O)c1ccncc1 [Compound 15]
IC50 ([4]; Homo sapiens, HepG2, 72 h): 67 µM
IC50 ([8]; Homo sapiens, L02, 72 h): > 200 µM

Structure (SMILES): C/C=C\C=C\C/C=C\CCCCCCCc1ccc2c(C)cc(=O)oc2c1OB(O)c1ccnc(F)c1 [Compound 16]
IC50 ([4]; Homo sapiens, HepG2, 72 h): 151 µM
IC50 ([8]; Homo sapiens, L02, 72 h): > 200 µM

Second part, led by results:

IC50 ([4]; Homo sapiens, HepG2, 72 h): > 200 µM
Structure (SMILES): C#CCOc1c(O)cccc1CCCCCCC/C=C\C/C=C/C=C\C [Compound 3]
IC50 ([8]; Homo sapiens, L02, 72 h): > 200 µM

IC50 ([4]; Homo sapiens, HepG2, 72 h): 89.7 µM
Structure (SMILES): C/C=C\C=C\C/C=C\CCCCCCCc1cccc2c1OC(C)(C(C)Br)O2 (stereo not drawn) [Compound 7]
IC50 ([8]; Homo sapiens, L02, 72 h): > 200 µM

IC50 ([4]; Homo sapiens, HepG2, 72 h): 15 µM
Structure (SMILES): C/C=C\C=C\C/C=C\CCCCCCCc1cccc(O)c1NS(C)(=O)=O [Compound 9]
inhibitory activity on HepG2 cells proliferation (in words) [4]: strong
IC50 ([8]; Homo sapiens, L02, 72 h): 121 µM

IC50 ([4]; Homo sapiens, HepG2, 72 h): 78.7 µM
Structure (SMILES): C/C=C\C=C\C/C=C\CCCCCCCc1ccc2c(C)cc(=O)oc2c1OB(O)c1ccccc1 [Compound 14]
IC50 ([8]; Homo sapiens, L02, 72 h): > 200 µM

Source: publication PMC6102549, “Synthesis and Evaluation of C15 Triene Urushiol Derivatives as Potential Anticancer Agents and HDAC2 Inhibitor” (Molecules : A Journal of Synthetic Chemistry and Natural …, 2018)
